Experiment: Head-to-side-chain cyclisation: Cys S-alkylation with bifunctional aldehyde linker 1-4 (benzyl bromide or bromoacetamide), then intramolecular reductive amination of the N-terminal amine with NaBH3CN (one pot, crude peptides)
Details: the molecule shown is the open-chain precursor, 100 mM MOPS pH 6.5 / about 20% MeCN, TCEP, 0.5 mM, 4.0 °C, 24.0 h, 2 steps, scale: 1 = smooth/efficient conversion to macrocycle as major UPLC-MS species, <1 = partial, mixture

COc1ccc(C=O)cc1NC(=O)CSC[C@H](NC(=O)CNC(=O)CNC(=O)[C@H](CO)NC(=O)[C@H](CO)NC(=O)[C@@H](NC(=O)[C@H](CCCCN)NC(C)=O)C(C)C)C(=O)N[C@@H](Cc1c[nH]c2ccccc12)C(=O)N[C@@H](C)C(N)=O
ring closure, product found (33-membered ring): < 1

CC(=O)N[C@@H](CCCCN)C(=O)N[C@H](C(=O)N[C@@H](CO)C(=O)N[C@@H](CO)C(=O)NCC(=O)NCC(=O)N[C@@H](CSCc1ccc(C=O)cc1)C(=O)N[C@@H](Cc1c[nH]c2ccccc12)C(=O)N[C@@H](C)C(N)=O)C(C)C [Ac-Lys-Val-Ser-Ser-Gly-Gly-Cys(CH2-C6H4-4-CHO)-Trp-Ala-NH2]
ring closure, product found (32-membered ring): < 1

CC(=O)N[C@@H](CCCCN)C(=O)N[C@H](C(=O)N[C@@H](CO)C(=O)N[C@@H](CO)C(=O)NCC(=O)NCC(=O)N[C@@H](CSCC(=O)Nc1ccc2cc(C=O)ccc2c1)C(=O)N[C@@H](Cc1c[nH]c2ccccc12)C(=O)N[C@@H](C)C(N)=O)C(C)C
ring closure, product found (36-membered ring): < 1

CC(C)[C@H](NC(=O)[C@H](C)N)C(=O)N[C@@H](CC(N)=O)C(=O)N[C@@H](CCC(=O)O)C(=O)N[C@@H](CCCCN)C(=O)N[C@@H](Cc1c[nH]cn1)C(=O)N[C@@H](Cc1ccc(O)cc1)C(=O)N[C@@H](CSCc1ccc(C=O)cc1)C(=O)N[C@@H](Cc1c[nH]c2ccccc12)C(=O)N[C@@H](C)C(N)=O
ring closure, product found (31-membered ring): 1

CC(=O)N[C@@H](CCCCN)C(=O)N[C@H](C(=O)N[C@@H](CO)C(=O)N[C@@H](CO)C(=O)NCC(=O)NCC(=O)N[C@@H](CSCC(=O)Nc1ccc(C=O)cc1)C(=O)N[C@@H](Cc1c[nH]c2ccccc12)C(=O)N[C@@H](C)C(N)=O)C(C)C
ring closure, product found (34-membered ring): < 1

CC(C)[C@H](NC(=O)[C@@H](N)CCCCN)C(=O)N[C@@H](CO)C(=O)N[C@@H](CO)C(=O)NCC(=O)NCC(=O)N[C@@H](CSCc1ccc(C=O)cc1)C(=O)N[C@@H](Cc1c[nH]c2ccccc12)C(=O)N[C@@H](C)C(N)=O [H-Lys-Val-Ser-Ser-Gly-Gly-Cys(CH2-C6H4-4-CHO)-Trp-Ala-NH2]
ring closure, product found (28-membered ring): 1

CC(C)[C@H](NC(=O)[C@H](C)N)C(=O)N[C@@H](CC(N)=O)C(=O)N[C@@H](CCC(=O)O)C(=O)N[C@@H](CCCCN)C(=O)N[C@@H](Cc1c[nH]cn1)C(=O)N[C@@H](Cc1ccc(O)cc1)C(=O)N[C@@H](CSCC(=O)Nc1ccc(C=O)cc1)C(=O)N[C@@H](Cc1c[nH]c2ccccc12)C(=O)N[C@@H](C)C(N)=O
ring closure, product found (33-membered ring): 1

CC(C)[C@H](NC(=O)[C@H](C)N)C(=O)N[C@@H](CO)C(=O)N[C@@H](CO)C(=O)NCC(=O)NCC(=O)N[C@@H](CSCC(=O)Nc1ccc(C=O)cc1)C(=O)N[C@@H](Cc1c[nH]c2ccccc12)C(=O)N[C@@H](C)C(N)=O
ring closure, product found (30-membered ring): 1

COc1ccc(C=O)cc1NC(=O)CSC[C@H](NC(=O)[C@H](Cc1ccc(O)cc1)NC(=O)[C@H](Cc1c[nH]cn1)NC(=O)[C@H](CCCCN)NC(=O)[C@H](CCC(=O)O)NC(=O)[C@H](CC(N)=O)NC(=O)[C@@H](NC(=O)[C@H](C)N)C(C)C)C(=O)N[C@@H](Cc1c[nH]c2ccccc12)C(=O)N[C@@H](C)C(N)=O
ring closure, product found (32-membered ring): 1

CC(C)[C@H](NC(=O)[C@H](C)N)C(=O)N[C@@H](CO)C(=O)N[C@@H](CO)C(=O)NCC(=O)NCC(=O)N[C@@H](CO)C(=O)NCC(=O)N[C@@H](CSCc1ccc(C=O)cc1)C(=O)N[C@@H](Cc1c[nH]c2ccccc12)C(=O)N[C@@H](C)C(N)=O
ring closure, product found (34-membered ring): 1

COc1ccc(C=O)cc1NC(=O)CSC[C@H](NC(=O)CNC(=O)[C@H](CO)NC(=O)CNC(=O)CNC(=O)[C@H](CO)NC(=O)[C@H](CO)NC(=O)[C@@H](NC(=O)[C@H](C)N)C(C)C)C(=O)N[C@@H](Cc1c[nH]c2ccccc12)C(=O)N[C@@H](C)C(N)=O
ring closure, product found (35-membered ring): 1

CC(C)[C@H](NC(=O)[C@H](C)N)C(=O)N[C@@H](CO)C(=O)N[C@@H](CO)C(=O)NCC(=O)NCC(=O)N[C@@H](CO)C(=O)NCC(=O)N[C@@H](CSCC(=O)Nc1ccc2cc(C=O)ccc2c1)C(=O)N[C@@H](Cc1c[nH]c2ccccc12)C(=O)N[C@@H](C)C(N)=O
ring closure, product found (38-membered ring): 1

CC(C)[C@H](NC(=O)[C@H](C)N)C(=O)N[C@@H](CO)C(=O)N[C@@H](CO)C(=O)NCC(=O)NCC(=O)N[C@@H](CO)C(=O)NCC(=O)N[C@@H](CSCC(=O)Nc1ccc(C=O)cc1)C(=O)N[C@@H](Cc1c[nH]c2ccccc12)C(=O)N[C@@H](C)C(N)=O
ring closure, product found (36-membered ring): 1

CC(C)[C@H](NC(=O)[C@H](C)N)C(=O)N[C@@H](CO)C(=O)N[C@@H](CO)C(=O)NCC(=O)NCC(=O)N[C@@H](CSCC(=O)Nc1ccc2cc(C=O)ccc2c1)C(=O)N[C@@H](Cc1c[nH]c2ccccc12)C(=O)N[C@@H](C)C(N)=O
ring closure, product found (32-membered ring): 1

COc1ccc(C=O)cc1NC(=O)CSC[C@H](NC(=O)CNC(=O)CNC(=O)[C@H](CO)NC(=O)[C@H](CO)NC(=O)[C@@H](NC(=O)[C@H](C)N)C(C)C)C(=O)N[C@@H](Cc1c[nH]c2ccccc12)C(=O)N[C@@H](C)C(N)=O
ring closure, product found (29-membered ring): 1

CC(C)[C@H](NC(=O)[C@@H](N)CCCCN)C(=O)N[C@@H](CO)C(=O)N[C@@H](CO)C(=O)NCC(=O)NCC(=O)N[C@@H](CSCC(=O)Nc1ccc2cc(C=O)ccc2c1)C(=O)N[C@@H](Cc1c[nH]c2ccccc12)C(=O)N[C@@H](C)C(N)=O
ring closure, product found (32-membered ring): 1

CC(C)[C@H](NC(=O)[C@H](C)N)C(=O)N[C@@H](CO)C(=O)N[C@@H](CO)C(=O)NCC(=O)NCC(=O)N[C@@H](CSCc1ccc(C=O)cc1)C(=O)N[C@@H](Cc1c[nH]c2ccccc12)C(=O)N[C@@H](C)C(N)=O [H-Ala-Val-Ser-Ser-Gly-Gly-Cys(CH2-C6H4-4-CHO)-Trp-Ala-NH2]
ring closure, product found (28-membered ring): 1

COc1ccc(C=O)cc1NC(=O)CSC[C@H](NC(=O)CNC(=O)CNC(=O)[C@H](CO)NC(=O)[C@H](CO)NC(=O)[C@@H](NC(=O)[C@@H](N)CCCCN)C(C)C)C(=O)N[C@@H](Cc1c[nH]c2ccccc12)C(=O)N[C@@H](C)C(N)=O
ring closure, product found (29-membered ring): 1

CC(C)[C@H](NC(=O)[C@@H](N)CCCCN)C(=O)N[C@@H](CO)C(=O)N[C@@H](CO)C(=O)NCC(=O)NCC(=O)N[C@@H](CSCC(=O)Nc1ccc(C=O)cc1)C(=O)N[C@@H](Cc1c[nH]c2ccccc12)C(=O)N[C@@H](C)C(N)=O
ring closure, product found (30-membered ring): 1

CC(C)[C@H](NC(=O)[C@H](C)N)C(=O)N[C@@H](CC(N)=O)C(=O)N[C@@H](CCC(=O)O)C(=O)N[C@@H](CCCCN)C(=O)N[C@@H](Cc1c[nH]cn1)C(=O)N[C@@H](Cc1ccc(O)cc1)C(=O)N[C@@H](CSCC(=O)Nc1ccc2cc(C=O)ccc2c1)C(=O)N[C@@H](Cc1c[nH]c2ccccc12)C(=O)N[C@@H](C)C(N)=O
ring closure, product found (35-membered ring): 1
